Source: patent publication US20250197372A1 (priority 2020, published 2025)

Experiments:
[1] = target: T1, recombinant alpha-glucosidase I (human full-length glucosidase I, Glu 1) (Homo sapiens, UniProt Q13724); assay: Alpha-glucosidase I assay (Amplex Red glucose detection, synthetic trisaccharide substrate); assay type: biochemical; details: Glucosidase 1; read-out: Glu 1 IC50
T1 construct: 6-His (C); made in house; host or cells: HEK-293T cells transduced with BacMam virus (virus raised in Sf9)
T1 sequence (Q13724 1-837): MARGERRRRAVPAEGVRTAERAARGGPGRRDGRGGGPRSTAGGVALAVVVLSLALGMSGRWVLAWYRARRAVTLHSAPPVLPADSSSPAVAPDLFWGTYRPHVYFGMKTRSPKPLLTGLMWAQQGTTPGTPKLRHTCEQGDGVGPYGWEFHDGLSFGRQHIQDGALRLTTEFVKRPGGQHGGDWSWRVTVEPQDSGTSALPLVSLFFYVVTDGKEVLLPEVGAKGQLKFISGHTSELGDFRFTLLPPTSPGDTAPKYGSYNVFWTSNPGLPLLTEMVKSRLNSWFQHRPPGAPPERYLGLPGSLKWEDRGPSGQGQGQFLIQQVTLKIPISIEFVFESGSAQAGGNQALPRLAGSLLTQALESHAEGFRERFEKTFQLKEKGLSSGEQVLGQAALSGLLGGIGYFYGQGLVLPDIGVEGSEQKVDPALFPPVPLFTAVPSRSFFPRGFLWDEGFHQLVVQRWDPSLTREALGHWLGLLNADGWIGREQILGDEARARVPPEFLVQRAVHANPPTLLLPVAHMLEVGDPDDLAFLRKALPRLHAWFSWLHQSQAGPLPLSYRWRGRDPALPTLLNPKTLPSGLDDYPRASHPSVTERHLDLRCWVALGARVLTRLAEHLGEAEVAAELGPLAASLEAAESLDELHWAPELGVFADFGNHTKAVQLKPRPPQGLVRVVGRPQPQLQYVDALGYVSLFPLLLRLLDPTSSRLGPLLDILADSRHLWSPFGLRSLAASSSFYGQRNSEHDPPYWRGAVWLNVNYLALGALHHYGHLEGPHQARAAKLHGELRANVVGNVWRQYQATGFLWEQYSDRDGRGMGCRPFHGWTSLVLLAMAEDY
Summary of the method: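 Compound dilution series incubated 60 min at 37° C with recombinant His-tagged human glucosidase I ([…]), after which trisaccharide substrate analog was added for 90 min at 37° C. Reaction quenched with 1.5M Tris pH 8; D-glucose detected by Amplex Red fluorescence, 560/590 nm. 4-PL curve fit of percent inhibition gave IC50.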

[2] = target: rat maltase (partially purified alpha-glucosidase from intestinal rat powder); assay: Intestinal alpha-glucosidase assay, maltose substrate (Glucose GO Kit); assay type: biochemical
Summary of the method: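 Rat intestinal enzyme prep + test cpd dilutions, 60 min 37 °C; add maltose (maltase) or sucrose (sucrase), 30 min 37 °C; stop 90 °C 5 min. Glucose readout (glucose oxidase kit). IC50 from 4-PL fit of % inhibition vs conc.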

NS(=O)(=O)c1cc(-c2ncccn2)ccc1NCCCCCCN1C[C@H](O)[C@@H](O)[C@H](O)[C@H]1CO [Compound 1265, 5-(pyrimidin-2-yl)-2-({6-[(2R,3R,4R,5S)-3,4,5-trihydroxy-2-(hydroxymethyl)piperidin-1-yl]hexyl}amino)benzene-1-sulfonamide]
IC50 [1]: 0.282 µM | IC50 [2]: 0.005 µM

OC[C@@H]1[C@@H](O)[C@H](O)[C@@H](O)CN1CCCCCCNc1ccc(-c2ncccn2)cc1C(F)(F)F [Compound 1258, (2R,3R,4R,5S)-2-(hydroxymethyl)-1-(6-{[4-(pyrimidin-2-yl)-2-(trifluoromethyl)phenyl]amino}hexyl)piperidine-3,4,5-triol]
IC50 [1]: 0.032 µM | IC50 [2]: 0.019 µM

Nc1ccc(NCCn2cc(CCN3C[C@H](O)[C@@H](O)[C@H](O)[C@H]3CO)nn2)c([N+](=O)[O-])c1Cl [Compound 1253, (2R,3R,4R,5S)-1-[2-(1-{2-[(4-amino-3-chloro-2-nitrophenyl)amino]ethyl}-1H-1,2,3-triazol-4-yl)ethyl]-2-(hydroxymethyl)piperidine-3,4,5-triol]
IC50 [1]: 1.75 µM | IC50 [2]: 0.777 µM

CN(C)Cc1ccc(NCCCCCCN2C[C@H](O)[C@@H](O)[C@H](O)[C@H]2CO)c(C(=O)O)c1 [Compound 1245, 5-[(dimethylamino)methyl]-2-({6-[(2R,3R,4R,5S)-3,4,5-trihydroxy-2-(hydroxymethyl)piperidin-1-yl]hexyl}amino)benzoic acid]
IC50 [1]: 0.292 µM | IC50 [2]: 0.032 µM

OC[C@@H]1[C@@H](O)[C@H](O)[C@@H](O)CN1Cc1cccc(CNc2ccc(Br)cc2)c1 [Compound 1027, (2R,3R,4R,5S)-1-[(3-{[(4-bromophenyl)amino]methyl}phenyl)methyl]-2-(hydroxymethyl)piperidine-3,4,5-triol]
IC50 [1]: 0.022 µM | IC50 [2]: 0.081 µM

COc1cc(NCCCCCCN2C[C@H](O)[C@@H](O)[C@H](O)[C@H]2CO)cc(-c2ncc[nH]2)c1 [Compound 1219, (2R,3R,4R,5S)-2-(hydroxymethyl)-1-(6-{[3-(1H-imidazol-2-yl)-5-methoxyphenyl]amino}hexyl)piperidine-3,4,5-triol]
IC50 [1]: 0.093 µM | IC50 [2]: 0.01 µM

COc1ccc(CCCCCCCN2C[C@H](O)[C@@H](O)[C@H](O)[C@H]2CO)cc1 [Compound 1309, (2R,3R,4R,5S)-2-(hydroxymethyl)-1-[7-(4-methoxyphenyl)heptyl]piperidine-3,4,5-triol]
IC50 [1]: 0.7 µM | IC50 [2]: 0.022 µM

Cc1nc(=O)c2cc(-c3ncccn3)ccc2n1CCCCCCN1C[C@H](O)[C@@H](O)[C@H](O)[C@H]1CO [Compound 1246, 2-methyl-6-(pyrimidin-2-yl)-1-{6-[(2R,3R,4R,5S)-3,4,5-trihydroxy-2-(hydroxymethyl)piperidin-1-yl]hexyl}-1,4-dihydroquinazolin-4-one]
IC50 [1]: 0.112 µM | IC50 [2]: > 100 µM

CN(C)Cc1ccc(NCCCCCCN2C[C@H](O)[C@@H](O)[C@H](O)[C@H]2CO)c(F)c1 [Compound 1236, (2R,3R,4R,5S)-1-[6-({4-[(dimethylamino)methyl]-2-fluorophenyl}amino)hexyl]-2-(hydroxymethyl)piperidine-3,4,5-triol]
IC50 [1]: 0.296 µM | IC50 [2]: 0.036 µM

N#Cc1cc(NCc2cccc(CN3C[C@H](O)[C@@H](O)[C@H](O)[C@H]3CO)c2)cc(N2CCOCC2)c1 [Compound 1042, 3-(morpholin-4-yl)-5-{[(3-{[(2R,3R,4R,5S)-3,4,5-trihydroxy-2-(hydroxymethyl)piperidin-1-yl]methyl}phenyl)methyl]amino}benzonitrile]
IC50 [1]: 0.03 µM | IC50 [2]: 0.029 µM

COc1cc(NCCCCCCN2C[C@H](O)[C@@H](O)[C@H](O)[C@H]2CO)cc(-c2ncccn2)c1 [Compound 1217, (2R,3R,4R,5S)-2-(hydroxymethyl)-1-(6-{[3-methoxy-5-(pyrimidin-2-yl)phenyl]amino}hexyl)piperidine-3,4,5-triol]
IC50 [1]: 0.128 µM | IC50 [2]: 0.011 µM

OC[C@@H]1[C@@H](O)[C@H](O)[C@@H](O)CN1CCCCCCNc1ccc(-c2ncccn2)cc1F [Compound 1229, (2R,3R,4R,5S)-1-(6-{[2-fluoro-4-(pyrimidin-2-yl)phenyl]amino}hexyl)-2-(hydroxymethyl)piperidine-3,4,5-triol]
IC50 [1]: 0.094 µM | IC50 [2]: 0.024 µM

Cc1cc(NCc2ccc(CN3C[C@H](O)[C@@H](O)[C@H](O)[C@H]3CO)cc2)cc(-n2nccn2)c1 [Compound 1316, (2R,3R,4R,5S)-2-(hydroxymethyl)-1-{[4-({[3-methyl-5-(2H-1,2,3-triazol-2-yl)phenyl]amino}methyl)phenyl]methyl}piperidine-3,4,5-triol]
IC50 [1]: 0.016 µM | IC50 [2]: 0.006 µM

[N-]=[N+]=Nc1ccc(NCCNC(=O)NCCN2C[C@H](O)[C@@H](O)[C@H](O)[C@H]2CO)c([N+](=O)[O-])c1 [Compound 1276, 1-{2-[(4-azido-2-nitrophenyl)amino]ethyl}-3-{2-[(2R,3R,4R,5S)-3,4,5-trihydroxy-2-(hydroxymethyl)piperidin-1-yl]ethyl}urea]
IC50 [1]: 2.44 µM | IC50 [2]: 0.049 µM

Cc1cc(NCc2cccc(CN3C[C@H](O)[C@@H](O)[C@H](O)[C@H]3CO)c2)cc(-c2cccnn2)c1 [Compound 1034, (2R,3R,4R,5S)-2-(hydroxymethyl)-1-{[3-({[3-methyl-5-(pyridazin-3-yl)phenyl]amino}methyl)phenyl]methyl}piperidine-3,4,5-triol]
IC50 [1]: 0.02 µM | IC50 [2]: 0.033 µM

COCCc1ccc(CCCN2C[C@H](O)[C@@H](O)[C@H](O)[C@H]2CO)cc1 [Compound 1308, (2R,3R,4R,5S)-2-(hydroxymethyl)-1-{3-[4-(2-methoxyethyl)phenyl]propyl}piperidine-3,4,5-triol]
IC50 [1]: > 100 µM | IC50 [2]: 0.088 µM

COc1ccc(CCCCCN2C[C@H](O)[C@@H](O)[C@H](O)[C@H]2CO)cc1 [Compound 1310, (2R,3R,4R,5S)-2-(hydroxymethyl)-1-[5-(4-methoxyphenyl)pentyl]piperidine-3,4,5-triol]
IC50 [1]: 0.678 µM | IC50 [2]: < 0.01 µM

N#CCc1ccc(NCCCCCCN2C[C@H](O)[C@@H](O)[C@H](O)[C@H]2CO)c([N+](=O)[O-])c1 [Compound 1299, 2-[3-nitro-4-({6-[(2R,3R,4R,5S)-3,4,5-trihydroxy-2-(hydroxymethyl)piperidin-1-yl]hexyl}amino)phenyl]acetonitrile]
IC50 [1]: 0.189 µM | IC50 [2]: 0.005 µM

N#Cc1ccc(F)cc1NCCCCCCN1C[C@H](O)[C@@H](O)[C@H](O)[C@H]1CO [Compound 1251, 4-fluoro-2-({6-[(2R,3R,4R,5S)-3,4,5-trihydroxy-2-(hydroxymethyl)piperidin-1-yl]hexyl}amino)benzonitrile]
IC50 [1]: 0.226 µM | IC50 [2]: 0.004 µM

[N-]=[N+]=Nc1ccc(NCCCCCCN2C[C@H](O)[C@@H](O)[C@H](O)[C@H]2CO)c(C(N)=O)c1 [Compound 1296, 5-azido-2-({6-[(2R,3R,4R,5S)-3,4,5-trihydroxy-2-(hydroxymethyl)piperidin-1-yl]hexyl}amino)benzamide]
IC50 [1]: 0.142 µM | IC50 [2]: < 0.01 µM

CN(C)Cc1ccc(NCCCCCCN2C[C@H](O)[C@@H](O)[C@H](O)[C@H]2CO)c(C#N)c1 [Compound 1257, 5-[(dimethylamino)methyl]-2-({6-[(2R,3R,4R,5S)-3,4,5-trihydroxy-2-(hydroxymethyl)piperidin-1-yl]hexyl}amino)benzonitrile]
IC50 [1]: 0.115 µM | IC50 [2]: 0.008 µM

COCCCCCN(CCCNc1ccc(N=[N+]=[N-])cc1[N+](=O)[O-])CCCN1C[C@H](O)[C@@H](O)[C@H](O)[C@H]1CO [Compound 1221, (2R,3R,4R,5S)-1-[3-({3-[(4-azido-2-nitrophenyl)amino]propyl}(5-methoxypentyl)amino)propyl]-2-(hydroxymethyl)piperidine-3,4,5-triol]
IC50 [1]: 2.23 µM | IC50 [2]: 0.233 µM

[N-]=[N+]=Nc1ccc(NCCS(=O)(=O)CCCN2C[C@H](O)[C@@H](O)[C@H](O)[C@H]2CO)c([N+](=O)[O-])c1 [Compound 1274, (2R,3R,4R,5S)-1-(3-{2-[(4-azido-2-nitrophenyl)amino]ethane-sulfonyl}propyl)-2-(hydroxymethyl)piperidine-3,4,5-triol]
IC50 [1]: 1.55 µM | IC50 [2]: 0.151 µM

[N-]=[N+]=Nc1ccc(N2CCN(CCN3C[C@H](O)[C@@H](O)[C@H](O)[C@H]3CO)CC2)c([N+](=O)[O-])c1 [Compound 1254, (2R,3R,4R,5S)-1-{2-[4-(4-azido-2-nitrophenyl)piperazin-1-yl]ethyl}-2-(hydroxymethyl)piperidine-3,4,5-triol]
IC50 [1]: 6.77 µM | IC50 [2]: 1.21 µM
